Among the data in patent US9630963B2, “Quinolone derivatives as fibroblast growth factor inhibitors” (Principia Biopharma, Inc., priority 2013, dated 2017) are IC50 values, retold here.

One assay has as its system SNU-16 cells. Briefly: Inhibition of FGFR2-dependent cell growth (Cell-titer Glo). The settings on record: Homo sapiens, SNU16 cells, 72 hrs incubation, cell viability by Cell-titer Glo. It is filed as cell-based. The method, then:
The cell-based effects of FGFR inhibitors were determined by measuring inhibition of FGFR-dependent cell line growth. […] Percent inhibition of cell growth was calculated as a percentage of untreated cell viability. The percent inhibition was plotted as a function of log compound concentration. The IC50 was then calculated for each compound using Prism software from GraphPad.

Another assay has as its target human recombinant FGFR4 (Homo sapiens, UniProt P22455). In words: FGFR family enzymatic activity assay (Caliper-based kinase assay), FGFR4. The assay is classed as biochemical. The note with it: FGFR4 2 nM, ATP 250 μM, peptide substrate 1 μM, room temperature 3 h. An excerpt: (§1) A Caliper-based kinase assay (Caliper Life Sciences, Hopkinton, Mass.) was used to measure inhibition of FGFR family (FGFR1, FGFR2, FGFR3, FGFR4) kinase activity of a compound of Formula (I′) or (I). […] This value is presented as the IC50.

For another assay, the target named is human recombinant FGFR3 (Homo sapiens, UniProt P22607). Briefly: FGFR family enzymatic activity assay (Caliper-based kinase assay), FGFR3. It is filed as biochemical. The settings on record: FGFR3 0.9 nM, ATP 120 μM, peptide substrate 1 μM, room temperature 3 h.
Sequence of human recombinant FGFR3 (P22607 23-806): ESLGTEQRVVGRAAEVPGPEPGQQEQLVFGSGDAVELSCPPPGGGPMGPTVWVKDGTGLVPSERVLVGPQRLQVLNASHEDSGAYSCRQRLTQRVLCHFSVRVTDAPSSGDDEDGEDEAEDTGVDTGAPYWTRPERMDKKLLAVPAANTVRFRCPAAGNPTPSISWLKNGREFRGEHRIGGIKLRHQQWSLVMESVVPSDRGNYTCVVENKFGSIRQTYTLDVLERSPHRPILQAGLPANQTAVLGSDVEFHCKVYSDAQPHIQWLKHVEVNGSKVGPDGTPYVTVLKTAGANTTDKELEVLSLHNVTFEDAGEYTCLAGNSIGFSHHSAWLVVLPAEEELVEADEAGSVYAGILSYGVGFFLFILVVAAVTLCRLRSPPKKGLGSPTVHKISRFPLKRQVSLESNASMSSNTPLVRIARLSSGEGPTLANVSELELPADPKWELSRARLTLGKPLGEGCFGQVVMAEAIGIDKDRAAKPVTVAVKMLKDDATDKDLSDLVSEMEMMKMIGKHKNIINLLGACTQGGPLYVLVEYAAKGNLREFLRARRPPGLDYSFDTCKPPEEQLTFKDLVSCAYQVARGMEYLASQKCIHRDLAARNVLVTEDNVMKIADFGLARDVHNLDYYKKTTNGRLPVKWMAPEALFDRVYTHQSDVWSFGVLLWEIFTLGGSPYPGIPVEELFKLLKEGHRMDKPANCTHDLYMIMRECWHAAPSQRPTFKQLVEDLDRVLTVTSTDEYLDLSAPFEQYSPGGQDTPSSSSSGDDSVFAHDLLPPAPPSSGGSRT
Text: as §1

Another assay has as its target human recombinant FGFR1 (Homo sapiens, UniProt P11362). Briefly: FGFR family enzymatic activity assay (Caliper-based kinase assay), FGFR1. The assay is classed as biochemical. The note with it: FGFR1 0.5 nM, ATP 100 μM, peptide substrate 1 μM, room temperature 3 h.
Text: as §1

Another assay has as its target human recombinant FGFR2 (Homo sapiens, UniProt P21802). In words: FGFR family enzymatic activity assay (Caliper-based kinase assay), FGFR2. The note with it: FGFR2 0.1 nM, ATP 75 μM, peptide substrate 1 μM, room temperature 3 h. The assay is classed as biochemical.
Text: as §1

Sequence of human recombinant FGFR2 (P21802 22-821): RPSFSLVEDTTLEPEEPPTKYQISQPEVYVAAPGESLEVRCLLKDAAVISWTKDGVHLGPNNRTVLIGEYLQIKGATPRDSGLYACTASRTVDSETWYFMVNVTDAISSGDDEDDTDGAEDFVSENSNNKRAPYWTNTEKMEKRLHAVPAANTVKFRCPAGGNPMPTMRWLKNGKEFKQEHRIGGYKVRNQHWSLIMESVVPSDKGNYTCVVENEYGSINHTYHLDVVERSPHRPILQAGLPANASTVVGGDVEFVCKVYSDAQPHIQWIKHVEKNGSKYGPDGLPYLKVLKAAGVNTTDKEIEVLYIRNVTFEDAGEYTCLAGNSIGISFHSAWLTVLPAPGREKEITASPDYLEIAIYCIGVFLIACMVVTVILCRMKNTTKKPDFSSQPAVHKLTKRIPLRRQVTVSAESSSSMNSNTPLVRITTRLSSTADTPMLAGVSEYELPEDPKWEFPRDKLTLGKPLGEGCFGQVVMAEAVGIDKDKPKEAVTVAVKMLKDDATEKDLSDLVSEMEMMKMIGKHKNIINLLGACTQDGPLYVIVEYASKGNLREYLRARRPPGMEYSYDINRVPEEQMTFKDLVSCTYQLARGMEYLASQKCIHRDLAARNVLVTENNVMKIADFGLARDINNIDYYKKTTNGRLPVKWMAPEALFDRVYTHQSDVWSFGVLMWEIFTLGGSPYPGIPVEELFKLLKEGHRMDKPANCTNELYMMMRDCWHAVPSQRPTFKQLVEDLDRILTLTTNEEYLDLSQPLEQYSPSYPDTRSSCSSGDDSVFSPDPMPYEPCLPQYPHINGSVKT
Sequence of human recombinant FGFR1 (P11362 22-822): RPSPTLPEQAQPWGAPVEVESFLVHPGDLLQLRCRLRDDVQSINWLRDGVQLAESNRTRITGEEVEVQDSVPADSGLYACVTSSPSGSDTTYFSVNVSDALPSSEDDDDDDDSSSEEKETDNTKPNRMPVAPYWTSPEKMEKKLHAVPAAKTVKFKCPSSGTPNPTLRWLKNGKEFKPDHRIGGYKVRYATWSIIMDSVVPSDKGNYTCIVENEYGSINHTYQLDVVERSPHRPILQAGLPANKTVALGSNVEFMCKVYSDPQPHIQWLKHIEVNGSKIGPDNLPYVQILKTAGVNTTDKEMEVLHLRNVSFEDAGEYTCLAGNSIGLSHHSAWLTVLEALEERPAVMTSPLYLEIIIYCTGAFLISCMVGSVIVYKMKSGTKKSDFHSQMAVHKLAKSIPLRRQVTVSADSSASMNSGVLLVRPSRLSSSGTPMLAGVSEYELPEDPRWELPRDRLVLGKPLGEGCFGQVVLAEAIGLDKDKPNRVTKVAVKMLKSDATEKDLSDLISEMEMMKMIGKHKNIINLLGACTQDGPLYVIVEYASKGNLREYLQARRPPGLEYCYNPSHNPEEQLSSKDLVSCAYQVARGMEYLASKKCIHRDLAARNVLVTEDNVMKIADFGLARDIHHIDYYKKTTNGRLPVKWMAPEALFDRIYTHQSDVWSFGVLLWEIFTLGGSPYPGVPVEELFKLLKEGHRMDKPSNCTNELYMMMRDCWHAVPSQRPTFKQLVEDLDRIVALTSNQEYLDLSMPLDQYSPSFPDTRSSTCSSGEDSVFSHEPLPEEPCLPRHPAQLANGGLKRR
Sequence of human recombinant FGFR4 (P22455 22-802): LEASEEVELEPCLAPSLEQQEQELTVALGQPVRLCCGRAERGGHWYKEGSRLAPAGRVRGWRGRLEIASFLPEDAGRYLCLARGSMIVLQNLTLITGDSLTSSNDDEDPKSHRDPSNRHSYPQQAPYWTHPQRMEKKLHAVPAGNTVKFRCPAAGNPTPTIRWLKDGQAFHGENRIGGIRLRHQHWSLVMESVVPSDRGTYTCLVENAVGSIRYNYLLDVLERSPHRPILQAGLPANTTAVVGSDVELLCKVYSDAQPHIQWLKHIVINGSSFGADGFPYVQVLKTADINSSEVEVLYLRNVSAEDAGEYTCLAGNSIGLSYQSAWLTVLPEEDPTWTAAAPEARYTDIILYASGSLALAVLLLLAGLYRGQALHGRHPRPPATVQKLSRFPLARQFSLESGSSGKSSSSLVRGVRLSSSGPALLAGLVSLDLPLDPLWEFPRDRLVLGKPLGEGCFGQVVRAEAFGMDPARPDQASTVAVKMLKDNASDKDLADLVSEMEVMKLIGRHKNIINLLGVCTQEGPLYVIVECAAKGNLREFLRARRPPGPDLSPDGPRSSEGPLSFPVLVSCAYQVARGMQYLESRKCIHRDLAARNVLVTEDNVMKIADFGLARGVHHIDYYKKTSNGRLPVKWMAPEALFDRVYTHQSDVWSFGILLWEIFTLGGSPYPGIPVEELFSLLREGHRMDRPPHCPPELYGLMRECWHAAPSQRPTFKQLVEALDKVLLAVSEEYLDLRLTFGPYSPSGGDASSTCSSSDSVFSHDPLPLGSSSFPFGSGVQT

`C=CC(=O)Nc1ccc(CCn2c(=O)c(-c3c(Cl)c(OC)cc(OC)c3Cl)cc3cnc(NCCO)nc32)cc1` [Example 65, N-(4-(2-(6-(2,6-dichloro-3,5-dimethoxyphenyl)-2-((2-hydroxyethyl)amino)-7-oxopyrido[2,3-d]pyrimidin-8(7H)-yl)ethyl)phenyl)acrylamide]: the IC50 was determined as 3 nM in the assay with SNU-16 cells; 13.8 nM at human recombinant FGFR4; 4.6 nM at human recombinant FGFR3; 0.6 nM on human recombinant FGFR1; 1.7 nM at human recombinant FGFR2.
`C=CC(=O)Nc1ccc(CCn2c(=O)c(-c3cc(OC)cc(OC)c3Cl)cc3cnc(NCCN4CCN(CC(C)(C)O)CC4)nc32)cc1` [Example 68, N-(4-(2-(6-(2-chloro-3,5-dimethoxyphenyl)-2-((2-(4-(2-hydroxy-2-methylpropyl)-piperazin-1-yl)ethyl)amino)-7-oxopyrido[2,3-d]pyrimidin-8(7H)-yl)ethyl)phenyl)acrylamide]: the IC50 in the assay on SNU-16 cells turned out to be 3.1 nM; on human recombinant FGFR4, 53.8 nM; on human recombinant FGFR3 it was 8.1 nM; at human recombinant FGFR1, 0.7 nM; on human recombinant FGFR2, 1.6 nM.
Consider `C=CC(=O)Nc1ccc(CCn2c(=O)c(-c3cc(OC)cc(OC)c3Cl)cc3cnc(NCC4CCN(C)CC4)nc32)cc1` [Example 71, N-(4-(2-(6-(2-chloro-3,5-dimethoxyphenyl)-2-(((1-methylpiperidin-4-yl)methyl)-amino)-7-oxopyrido[2,3-d]pyrimidin-8(7H)-yl)ethyl)phenyl)acrylamide], for which the IC50 in the assay with SNU-16 cells came out at 4.9 nM; at human recombinant FGFR4, 95.8 nM; on human recombinant FGFR3, 5.9 nM; on human recombinant FGFR1 it was 1 nM; at human recombinant FGFR2, 1.3 nM.
Consider `C=CC(=O)Nc1ccc(CCn2c(=O)c(-c3c(Cl)c(OC)cc(OC)c3Cl)cc3cnc(NCC4CCN(C)CC4)nc32)cc1` [Example 75, N-(4-(2-(6-(2,6-dichloro-3,5-dimethoxyphenyl)-2-(((1-methylpiperidin-4-yl)methyl)-amino)-7-oxopyrido[2,3-d]pyrimidin-8(7H)-yl)ethyl)phenyl)acrylamide], for which the IC50 in the assay on SNU-16 cells stood at 2.2 nM; on human recombinant FGFR4, 14.7 nM; on human recombinant FGFR3, 3.3 nM; at human recombinant FGFR1, 0.4 nM; at human recombinant FGFR2 it was 0.6 nM.
`C=CC(=O)Nc1ccc(CCn2c(=O)c(-c3c(Cl)c(OC)cc(OC)c3Cl)cc3cnc(NC(CO)CO)nc32)cc1` [Example 76, N-(4-(2-(6-(2,6-dichloro-3,5-dimethoxyphenyl)-2-((1,3-dihydroxypropan-2-yl)-amino)-7-oxopyrido[2,3-d]pyrimidin-8(7H)-yl)ethyl)phenyl)acrylamide]: the IC50 in the assay on SNU-16 cells turned out to be 7.4 nM; at human recombinant FGFR4, 9.6 nM; at human recombinant FGFR3, 6.7 nM; at human recombinant FGFR1 it was 0.8 nM; on human recombinant FGFR2 it was 1.6 nM.

For orientation: IC50 means the concentration at which inhibition is half-maximal.
